pIC50: −log10 of the molar value.
Target: GTPase KRas (Homo sapiens, UniProt P01116, C118A/G12C)
Assay: Biochemical Assay: The following assay conditions were employed: Coupled Nucleotide Exchange Assay: Purified GDP-bound KRAS protein (aa 1-169), containing both G12C and C118A amino acid substitutions and an N-terminal His-tag, was pre-incubated with a compound dose-response titration for 5 min in assay buffer (25 mM HEPES pH 7.4, 10 mM MgCl2, and 0.01% Triton X-100). Following compound pre-incubation, purified SOS protein (aa 564-1049) and GTP (Roche 10106399001) were added to the assay wells and incubated for an additional 30 min. To determine the extent of inhibition of SOS-mediated nucleotide exchange, purified GST-tagged cRAF (aa 1-149), nickel chelate AlphaLISA acceptor beads (PerkinElmer AL108R), and AlphaScreen glutathione donor beads (PerkinElmer 6765302) were added to the assay wells and incubated for 5 minutes. The assay plates were then read on a PerkinElmer EnVision Multilabel Reader, using AlphaScreen® technology, and data were analyzed using a 4-parameter logistic model to calculate IC50 values.

Sequence of GTPase KRas (P01116 whole entry G12C/C118A, the tested form may be a part): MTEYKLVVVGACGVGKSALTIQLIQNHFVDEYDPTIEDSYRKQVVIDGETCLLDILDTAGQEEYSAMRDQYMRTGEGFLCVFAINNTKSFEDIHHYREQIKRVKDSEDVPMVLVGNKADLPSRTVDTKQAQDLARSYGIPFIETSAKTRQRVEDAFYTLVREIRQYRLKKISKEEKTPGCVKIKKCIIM

For `C=CC(=O)N1[C@H](C)CN(c2nc(=O)n(-c3c(C)ccnc3C(C)C)c3nc(-c4c(N)cccc4F)c(Cl)cc23)C[C@@H]1C` (atropisomer, axis not shown), the pIC50 was 7.85.
